# Columns and labels:
# Assay type in all cases: in vivo
# ICR mice [1] = test: Mouse tail-hanging experiment (Experiment 1)
# Method: 1.1 Experimental animals: ICR mice, male, 22.0±2 g of body weight, secondary, are provided by the Experimental Animal Science Department of Capital Medical University, Beijing. 1.2 Experiment pharmaceuticals: The pharmaceutical of Embodiment 1 is provided by Beijing Wonner Biotech. […] High dose of Embodiment 1 (80 mg/kg/d); 2. middle dose of Embodiment 1 (40 mg/kg/d); and 3. low dose of Embodiment 1 (20 mg/kg/d). 1.5.1 Group division and administration of drug: The mice are grouped randomly, and 10 mice are in each group. 1. High dose of Embodiment 1 (80 mg/kg, per oral (P.O.), administered for 7 days); 2. middle dose of Embodiment 1 (40 mg/kg, P.O., administered for 7 days); 3. low dose of Embodiment 1 (20 mg/kg, P.O., administered for 7 days); 4. […] After 1 hour of the last administration of drug, the mouse tail-hanging experiment is proceeded. 1.5.2 Experimental method: The mouse's tail (1 cm to the tail end) is taped on the wood strip higher than the platform for 5 cm and hung up for 6 minutes. The time of non-movement of the mouse for the last 5 minutes is recorded. 1.5.3 Statistic calculation: The experimental data are represented as X±SD, and the experimental result is calculated as analysis of variance (ANOVA) by SPSS 11.5 statistic software.
# ICR mice [2] = test: Resetpine-induced mouse body temperature decrease experiment (Experiment 4)
# Source text: 4.1 Experimental animals: ICR mice, male, 22.0±2 g of body weight, secondary, are provided by the Experimental Animal Science Department of Capital Medical University, Beijing.
# 4.2 Experiment pharmaceuticals: The pharmaceutical of Embodiment 2 is provided by Beijing Wonner Biotech. Ltd. Co., Paroxetine (Paxil) is the product of Zhong Mei Tianjin Smith Kline pharmaceuticals Co. Ltd., and Resetpine is the product of Guangdong BangMin Pharmaceutical Co., Ltd.
# 4.4 Dose designs: 1. High dose of Embodiment 2 (80 mg/kg/d); 2. middle dose of Embodiment 2 (40 mg/kg/d); and 3. low dose of Embodiment 2 (20 mg/kg/d).
# 4.5.1 Group division and administration of drug: The mice are grouped randomly, and 10 mice are in each group. 1. High dose of Embodiment 2 (80 mg/kg, P.O., administered for 7 days); 2. middle dose of Embodiment 2 (40 mg/kg, P.O., administered for 7 days); 3. low dose of Embodiment 2 (20 mg/kg, P.O., administered for 7 days); 4.
# 4.5.2 Experimental method: After 1 hour of the last administration of drug on the eighth day, the mouse's anal temperature is determined. […] After 4 hours of injecting Resetpine, the mouse's anal temperature is determined once again. […]
# 4.5.3 Statistic calculation: The experimental data are represented as X±SD, and the experimental result is calculated as ANOVA by SPSS 11.5 statistic software.
# ICR mice [3] = test: Mouse tail-hanging experiment (Experiment 3)
# Method: 3.1 Experimental animals: ICR mice, male, 22.0±2 g of body weight, secondary, are provided by the Experimental Animal Science Department of Capital Medical University, Beijing. 3.2 Experiment pharmaceuticals: The pharmaceutical of Embodiment 2 is provided by Beijing Wormer Biotech. […] High dose of Embodiment 2 (80 mg/kg/d); 2. middle dose of Embodiment 2 (40 mg/kg/d); and 3. low dose of Embodiment 2 (20 mg/kg/d). 3.5.1 Group division and administration of drug: The mice are grouped randomly, and 10 mice are in each group. 1. High dose of Embodiment 2 (80 mg/kg, P.O., administered for 7 days); 2. middle dose of Embodiment 2 (40 mg/kg, P.O., administered for 7 days); 3. low dose of Embodiment 2 (20 mg/kg, P.O., administered for 7 days); 4. […] After 1 hour of the last administration of drug, the mouse tail-hanging experiment is proceeded. 3.5.2 Experimental method: The mouse's tail (1 cm to the tail end) is taped on the wood strip higher than the platform for 5 cm and hung up for 6 minutes. The time of non-movement of the mouse for the last 5 minutes is recorded. 3.5.3 Statistic calculation: The experimental data are represented as X±SD, and the experimental result is calculated as ANOVA by SPSS 11.5 statistic software.
# [4] = 3 mg/kg P.O. 7 days, 1 h after last dose, last 5 of 6 min
compound,measurement,setting,value
Fc1ccc([C@@H]2CCNC[C@H]2COc2ccc3c(c2)OCO3)cc1 [Paroxetine],Time of non-movement,ICR mice [1]; [4],75.33 ± 22.91 s
same,Effect on time of non-movement after the mouse's tail is hung up (in words),"ICR mice [1]; high and middle doses of Embodiment 1, Paroxetine, significantly different from control",decrease the time of non-movement
same,Decreased temperature,"ICR mice [2]; 3 mg/kg P.O. 7 days, 4 h after Resetpine 2 mg/kg i.p.",2.38 ± 0.69 °C
same,Effect on reduced body temperature induced by Resetpine (in words),"ICR mice [2]; middle dose of Embodiment 2, Paroxetine",decrease the reduced body temperature induced by Resetpine
same,Time of non-movement,ICR mice [3]; [4],75.33 ± 22.91 s
same,Effect on time of non-movement after the mouse's tail is hung up (in words),"ICR mice [3]; middle dose of Embodiment 2, Paroxetine, significantly different from control",decrease the time of non-movement

# Reference: patent US20100311674A1, “PHARMACEUTICAL COMPOSITIONS WITH A MECHANISM OF MULTI-TARGET RECEPTOR RETROACTION FOR TREATING DEPRESSION” (Yu-Fen Chi, priority 2007, published 2010)
